For orientation: IC50 means the concentration that gives 50% inhibition.

Structures are written as SMILES. ≈ marks a conversion by molar mass, not a printed value. Read-outs that look alike come from different tables or passages of the source. Some results are limits rather than exact numbers.

One test has as its system Vero cells. Description: Cytotoxicity on Vero cells. Format: cell-based. As to conditions: for SI (selectivity index): SI = IC50(Vero)/MIC.
Another test deals with M. abs. Put plainly: MIC against M. abs. Format: cell-based, Mycobacterium abscessus. As to conditions: Mycobacteroides abscessus, read-out: M. abs MIC.
A further test deals with M. avium. Put plainly: MIC against M. avium. The format is cell-based. Particulars: Mycobacterium avium, read-out: M. avium MIC.
The subject of another test is M. tb V4207/DS. Put plainly: microbe, parasite or virus in culture. Format: cell-based. Particulars: Mycobacterium tuberculosis, read-out: M. tb MIC V4207/DS.
The mark [1] stands for this setting: Chlorocebus sabaeus, Vero, read-out: IC50 Vero cells, cytotoxicity, Vero cells.
The mark [2] stands for this setting: read-out: IC50 Vero cells, cytotoxicity, Vero cells.

As for `O=C(NC12CC3CC(CC(C3)C1)C2)c1cc(=O)c2c(Br)cccc2[nH]1` [8i, N-(1-Adamantanyl)-5-bromo-4-oxo-1,4-dihydroquinoline-2-carboxamide], the “SI (selectivity index)” value with Vero cells came out at 4. Besides, the MIC with M. abs was more than 159 µM; with M. avium, more than 159 µM; in the test with M. tb V4207/DS, 9.97 µM (≈ 4 µg/mL).

`O=C(Nc1nc(-c2ccc(Cl)cc2Cl)cs1)C12CC3CC(CC(C3)C1)C2` [18b, N-(4-(2,4-Dichlorophenyl)thiazol-2-yl)adamantane-1-carboxamide]: the half-maximal inhibitory concentration (IC50) in the test with Vero cells (setting [1]) is 9.82 to 39.9 µM; with Vero cells (setting [2]) it was 9.82 µM. In addition, the “SI (selectivity index)” value with Vero cells amounted to 1. Moreover, the MIC in the test with M. abs is more than 157 µM; in the test with M. avium, more than 157 µM; with M. tb V4207/DS, 9.82 µM (≈ 4 µg/mL).

On to `O=C(NC12CC3CC(CC(C3)C1)C2)c1ccc2ccccc2c1` [13d, N-(1-Adamantanyl)-2-naphthamide], for which the figures for the concentration for half-maximal inhibition (IC50) with Vero cells (setting [1]) and in the test with Vero cells (setting [2]) were not below 227 µM and not below 419 µM, respectively. Also, the “SI (selectivity index)” value in the test with Vero cells is not below 64. Besides, the MIC with M. abs is more than 209 µM; in the test on M. avium, more than 209 µM; in the test with M. tb V4207/DS, 6.55 to 13.1 µM (≈ 2 to 4 µg/mL).

As to `O=C(NC1CCCCCCC1)c1ccc2ccccc2c1` [13c, N-Cyclooctyl-2-naphthamide], the 50% inhibitory concentration (IC50) in the test on Vero cells (setting [1]) was not below 227 µM. In addition, the “SI (selectivity index)” value in the test with Vero cells was not below 32. The MIC in the test on M. abs is more than 227 µM; in the test on M. avium, more than 227 µM; in the test with M. tb V4207/DS, 7.11 µM (≈ 2 µg/mL).

These data come from publication PMC7497412 (RSC Advances, 2020).
